Assay results as given in patent US8445501B2, “Substituted 7-carboxamido-pyrrolo[3,2-d]pyrimidines” (Takeda GmbH, priority 2008, dated 2013).

Target: T1, human PDE5 (Homo sapiens, UniProt O76074)
T1 construct: from tissue; host or cells: platelets from fresh blood of human donors (lysate, 10,000 g supernatant)
Assay: Inhibition of the type 5 phosphodiesterase (PDE5) activity, modified SPA test with platelet lysate
Type: biochemical
Conditions: PDE5 from human platelet lysate, 0.5 μM cGMP
Outline: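 SPA-based cGMP hydrolysis, [3H]cGMP tracer in 0.5 μM cGMP, by sonicated human platelet lysate; motapizone (1 μM) and a PDE2 inhibitor (10 nM) block other PDEs. Reaction 15 min at 37 °C after 5 min preincubation, quenched with beads containing IBMX. IC50 from concentration-effect curves.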

Compound | IC50 [nM] | -log IC50 (mol/l)
COCCNC(=O)[C@H]1CC[C@H](NC(=O)c2c[nH]c3c(-c4cc(F)ccc4OCC4CC4)ncnc23)CC1 [Example 274, trans-4-(2-Cyclopropylmethoxy-5-fluoro-phenyl)-5H-pyrrolo[3,2-d]pyrimidine-7-carboxylic acid [4-(2-methoxy-ethylcarbamoyl)-cyclohexyl]-amide] | 5.25 | –
CC(=O)N1CCC(NC(=O)c2c[nH]c3c(-c4cc(F)c(O)cc4OCC4CC4)ncnc23)CC1 [Example 277, 4-(2-Cyclopropylmethoxy-5-fluoro-4-hydroxy-phenyl)-5H-pyrrolo[3,2-d]pyrimidine-7-carboxylic acid (1-acetyl-piperidin-4-yl)-amide] | 93.3 | –
CCC(=O)N1CCC(NC(=O)c2c[nH]c3c(-c4cc(F)c(O)cc4OCC4CC4)ncnc23)CC1 [Example 278, 4-(2-Cyclopropylmethoxy-5-fluoro-4-hydroxy-phenyl)-5H-pyrrolo[3,2-d]pyrimidine-7-carboxylic acid (1-propionyl-piperidin-4-yl)-amide] | 57.5 | –
O=C(NC1CCN(C(=O)CO)CC1)c1c[nH]c2c(-c3cc(F)c(O)cc3OCC3CC3)ncnc12 [Example 281, 4-(2-Cyclopropylmethoxy-5-fluoro-4-hydroxy-phenyl)-5H-pyrrolo[3,2-d]pyrimidine-7-carboxylic acid [1-(2-hydroxy-acetyl)piperidin-4-yl]-amide] | 851 | –
C[C@H](O)C(=O)N1CCC(NC(=O)c2c[nH]c3c(-c4cc(F)c(O)cc4OCC4CC4)ncnc23)CC1 [Example 282, 4-(2-Cyclopropylmethoxy-5-fluoro-4-hydroxy-phenyl)-5H-pyrrolo[3,2-d]pyrimidine-7-carboxylic acid [1-((S)-2-hydroxy-propionyl)piperidin-4-yl]-amide] | 251 | –
O=C(NC1CCN(C(=O)CO)CC1)c1c[nH]c2c(-c3cc(F)c(OC(F)F)cc3OCC3CC3)ncnc12 [Example 283, 4-[2-Cyclopropylmethoxy-4-(1,1-difluoro-methoxy)-5-fluoro-phenyl]-5H-pyrrolo[3,2-d]pyrimidine-7-carboxylic acid [1-(2-hydroxy-acetyl)piperidin-4-yl]-amide] | 5.13 | –
C[C@H](O)C(=O)N1CCC(NC(=O)c2c[nH]c3c(-c4cc(F)c(OC(F)F)cc4OCC4CC4)ncnc23)CC1 [Example 284, 4-[2-Cyclopropylmethoxy-4-(1,1-difluoro-methoxy)-5-fluoro-phenyl]-5H-pyrrolo[3,2-d]pyrimidine-7-carboxylic acid [1-((S)-2-hydroxy-propionyl)-piperidin-4-yl]-amide] | 2.88 | –
trans-4-(2-Cyclopropylmethoxy-4-fluoro-phenyl)-5H-pyrrolo[3,2-d]pyrimidine-7-carboxylic acid [4-((S)-2-hydroxy-propionylamino)-cyclohexyl]-amide [Example 223] | – | 8.46

Second part, the compound after the results:

IC50 [nM] | -log IC50 (mol/l) | Compound
0.55 | – | COc1ccc(-c2ncnc3c(C(=O)N[C@H]4CC[C@H](C(=O)NC5CC5)CC4)c[nH]c23)c(OCC2CC2)c1 [Example 271, trans-4-(2-Cyclopropylmethoxy-4-methoxy-phenyl)-5H-pyrrolo[3,2-d]pyrimidine-7-carboxylic acid (4-cyclopropylcarbamoyl-cyclohexyl)-amide]
0.708 | – | COCCNC(=O)[C@H]1CC[C@H](NC(=O)c2c[nH]c3c(-c4ccc(OC)cc4OCC4CC4)ncnc23)CC1 [Example 272, trans-4-(2-Cyclopropylmethoxy-4-methoxy-phenyl)-5H-pyrrolo[3,2-d]pyrimidine-7-carboxylic acid [4-(2-methoxy-ethylcarbamoyl)-cyclohexyl]-amide]
2.19 | – | O=C(N[C@H]1CC[C@H](C(=O)NC2CC2)CC1)c1c[nH]c2c(-c3cc(F)ccc3OCC3CC3)ncnc12 [Example 273, trans-4-(2-Cyclopropylmethoxy-5-fluoro-phenyl)-5H-pyrrolo[3,2-d]pyrimidine-7-carboxylic acid (4-cyclopropylcarbamoyl-cyclohexyl)-amide]
0.347 | – | COCCNC(=O)[C@H]1CC[C@H](NC(=O)c2c[nH]c3c(-c4c(OCC5CCC5)ccc5c4OCO5)ncnc23)CC1 [Example 275, trans-4-(5-Cyclobutylmethoxy-benzo[1,3]dioxol-4-yl)-5H-pyrrolo[3,2-d]pyrimidine-7-carboxylic acid [4-(2-methoxy-ethylcarbamoyl)-cyclohexyl]-amide]
0.166 | – | O=C(N[C@H]1CC[C@H](C(=O)NC2CC2)CC1)c1c[nH]c2c(-c3c(OCC4CCC4)ccc4c3OCO4)ncnc12 [Example 276, trans-4-(5-Cyclobutylmethoxy-benzo[1,3]dioxol-4-yl)-5H-pyrrolo[3,2-d]pyrimidine-7-carboxylic acid (4-cyclopropylcarbamoyl-cyclohexyl)-amide]
2.34 | – | CC(=O)N1CCC(NC(=O)c2c[nH]c3c(-c4cc(F)c(OC(F)F)cc4OCC4CC4)ncnc23)CC1 [Example 279, 4-[2-Cyclopropylmethoxy-4-(1,1-difluoro-methoxy)-5-fluoro-phenyl]-5H-pyrrolo[3,2-d]pyrimidine-7-carboxylic acid (1-acetyl-piperidin-4-yl)-amide]
1.74 | – | COCC(=O)N1CCC(NC(=O)c2c[nH]c3c(-c4cc(F)c(OC(F)F)cc4OCC4CC4)ncnc23)CC1 [Example 280, 4-[2-Cyclopropylmethoxy-4-(1,1-difluoro-methoxy)-5-fluoro-phenyl]-5H-pyrrolo[3,2-d]pyrimidine-7-carboxylic acid [1-(2-methoxy-ethanoyl)-piperidin-4-yl]amide]
